Assay results published in ChEMBL document CHEMBL3808333, “Design, synthesis and anticonvulsant activity of new hybrid compounds derived from N-phenyl-2-(2,5-dioxopyrrolidin-1-yl)-propanamides and -butanamides” (Bioorg Med Chem, 2016).
Activity calls are given as the source filed them. No cut-off for these calls is given here.

How the values were obtained:
[1] = tested on: Mus musculus; test: Anticonvulsant activity in albino Swiss mouse assessed as protection against electrically-induced seizure pretreated for 0.5 hrs at 100 mg/kg, ip by 6Hz psychomotor seizure test; format: functional
[2] = Protective index, ratio of TD50 for acute neurotoxicity in albino Swiss mouse to ED50 for anticonvulsant activity in albino Swiss mouse by 6Hz psychomotor seizure test; format: toxicity, organism-based; details: in vivo, read-out: Ratio TD50/ED50
[3] = Protective index, ratio of TD50 for acute neurotoxicity in albino Swiss mouse to ED50 for anticonvulsant activity in albino Swiss mouse by maximal electroshock seizure test; format: toxicity, organism-based; details: in vivo, read-out: Ratio TD50/ED50
[4] = tested on: Mus musculus; test: Anticonvulsant activity in albino Swiss mouse measured after 30 mins by subcutaneous pentylenetetrazole seizure test; format: functional; details: sc, 0.5 h
[5] = tested on: Mus musculus; test: Acute neurotoxicity in albino Swiss mouse pretreated for 0.5 hrs at 100 mg/kg, ip by rotorod test; format: toxicity, organism-based; details: in vivo
[6] = species on record: Mus musculus; test: Anticonvulsant activity in albino Swiss mouse assessed as protection against electrically-induced seizure by 6Hz psychomotor seizure test; format: functional
[7] = tested on: Mus musculus; test: Anticonvulsant activity in albino Swiss mouse assessed as protection against electrically-induced seizure pretreated for 2 hrs at 100 mg/kg, ip by 6Hz psychomotor seizure test; format: functional, organism-based
[8] = tested on: Mus musculus; test: Anticonvulsant activity in albino Swiss mouse assessed as reduction in clonic seizures pretreated for 0.5 hrs at 100 mg/kg, ip measured after 30 mins by subcutaneous pentylenetetrazole seizure test; format: functional; set-up: scale not given: the % may be the effect or the level left
[9] = tested on: Mus musculus; test: Anticonvulsant activity in albino Swiss mouse assessed as protection against maximal electroshock-induced seizures pretreated for 2 hrs at 100 mg/kg, ip by maximal electroshock seizure test; format: functional, organism-based
[10] = tested on: Mus musculus; test: Anticonvulsant activity against albino Swiss mouse seizure model assessed as time to peak effect at 100 mg/kg, ip; format: functional
[11] = Protective index, ratio of TD50 for acute neurotoxicity in albino Swiss mouse to ED50 for anticonvulsant activity in albino Swiss mouse by subcutaneous pentylenetetrazole seizure test; format: toxicity, organism-based; details: in vivo, read-out: Ratio TD50/ED50
[12] = Acute neurotoxicity in albino Swiss mouse pretreated for 2 hrs by rotorod test; format: toxicity, organism-based; details: in vivo
[13] = tested on: Mus musculus; test: Anticonvulsant activity in albino Swiss mouse assessed as protection against maximal electroshock-induced seizures pretreated for 0.5 hrs at 100 mg/kg, ip by maximal electroshock seizure test; format: functional
[14] = species on record: Mus musculus; test: Anticonvulsant activity in albino Swiss mouse by maximal electroshock seizure test; format: functional
[15] = tested on: Mus musculus; test: Acute neurotoxicity in albino Swiss mouse pretreated for 2 hrs at 100 mg/kg, ip by rotorod test; format: toxicity, organism-based; details: in vivo
[16] = tested on: Mus musculus; test: Anticonvulsant activity in albino Swiss mouse assessed as reduction in clonic seizures pretreated for 2 hrs at 100 mg/kg, ip measured after 30 mins by subcutaneous pentylenetetrazole seizure test; format: functional, organism-based
[17] = species on record: Rattus norvegicus; test: Displacement of [3H]Batrachotoxinin from voltage-sensitive sodium channel site 2 in rat cerebral cortex synaptoneurosomes at 100 uM measured after 60 mins by scintillation counting method; format: tissue-based
[18] = species on record: Rattus norvegicus; test: Displacement of [3H]D888 from L-type calcium channel verapamil binding site in rat cerebral cortex synaptoneurosomes at 100 uM measured after 120 mins by scintillation counting method; format: tissue-based
[19] = species on record: Rattus norvegicus; test: Displacement of [3H]Batrachotoxinin from voltage-sensitive sodium channel site 2 in rat cerebral cortex synaptoneurosomes at 200 uM measured after 60 mins by scintillation counting method; format: tissue-based
[20] = species on record: Rattus norvegicus; test: Displacement of [3H]D888 from L-type calcium channel verapamil binding site in rat cerebral cortex synaptoneurosomes at 200 uM measured after 120 mins by scintillation counting method; format: tissue-based
[21] = species on record: Rattus norvegicus; test: Displacement of [3H]nitrendipine from L-type calcium channel dihydropyridine site in rat cerebral cortex synaptoneurosomes at 200 uM measured after 90 mins by scintillation counting method; format: tissue-based
[22] = species on record: Rattus norvegicus; test: Displacement of [3H]nitrendipine from L-type calcium channel dihydropyridine site in rat cerebral cortex synaptoneurosomes at 100 uM measured after 90 mins by scintillation counting method; format: tissue-based
[23] = species on record: Rattus norvegicus; test: Displacement of [125I]omega-Conotoxin GVIA from N-type calcium channel in rat cerebral cortex synaptoneurosomes at 100 uM measured after 30 mins by scintillation counting method; format: tissue-based
[24] = species on record: Rattus norvegicus; test: Displacement of [125I]omega-Conotoxin GVIA from N-type calcium channel in rat cerebral cortex synaptoneurosomes at 200 uM measured after 30 mins by scintillation counting method; format: tissue-based
[25] = species on record: Rattus norvegicus; test: Displacement of [3H]diltiazem from L-type calcium channel diltiazem binding site in rat cerebral cortex synaptoneurosomes at 100 uM measured after 120 mins by scintillation counting method; format: tissue-based
[26] = species on record: Rattus norvegicus; test: Displacement of [3H]diltiazem from L-type calcium channel diltiazem binding site in rat cerebral cortex synaptoneurosomes at 200 uM measured after 120 mins by scintillation counting method; format: tissue-based
[27] = species on record: Rattus norvegicus; test: Displacement of [3H]Batrachotoxinin from voltage-sensitive sodium channel site 2 in rat cerebral cortex synaptoneurosomes at 500 uM measured after 60 mins by scintillation counting method; format: tissue-based

CC(C(=O)Nc1cccc(Cl)c1)N1C(=O)CCC1=O (stereo not given)
Activity [1]: 75%
selectivity ratio [2]: > 6.7
selectivity ratio [3]: > 4.8
ED50 [4]: 87.7 mg/kg
Activity [5]: 50%
ED50 [6]: 74.5 mg/kg
Activity [7]: inactive
Activity [8]: 75%
Activity [9]: inactive
Time [10]: 0.5 h
selectivity ratio [11]: > 5.7
TD50 at 2 h [12]: > 500 mg/kg
Activity [13]: 75%
ED50 [14]: 105 mg/kg

CC(C(=O)Nc1cccc(C(F)(F)F)c1)N1C(=O)CCC1=O (stereo not given)
Activity [13]: inactive

CC(C(=O)Nc1ccc(C(F)(F)F)cc1)N1C(=O)CCC1=O (stereo not given)
Activity [9]: inactive

CC1CC(=O)N(C(C)C(=O)Nc2ccccc2)C1=O (stereo not given)
Activity [9]: inactive

CCC(C(=O)Nc1ccccc1)N1C(=O)CCC1=O (stereo not given)
Activity [1]: Active
selectivity ratio [2]: 5.7
selectivity ratio [3]: 3.4
ED50 [4]: 75.4 mg/kg
Activity [5]: Non-toxic
ED50 [6]: 69.3 mg/kg
Activity [7]: inactive
Activity [8]: 75%
Activity [15]: Non-toxic
Time [10]: 0.5 h
selectivity ratio [11]: 5.3
Activity [16]: inactive
TD50 at 2 h [12]: 398 mg/kg
Activity [13]: 75%
ED50 [14]: 116 mg/kg

CC1CC(=O)N(C(C)C(=O)Nc2ccc(F)cc2)C1=O (stereo not given)
Activity [9]: inactive
Activity [13]: inactive

CC[C@@H](C(N)=O)N1CCCC1=O
ED50 [4]: > 500 mg/kg
Time [10]: 1 h
TD50 at 2 h [12]: > 500 mg/kg
ED50 [14]: > 500 mg/kg

CC(C(=O)Nc1cccc(F)c1)N1C(=O)CCC1=O (stereo not given)
Activity [9]: inactive

CC(C(=O)Nc1ccccc1)N1C(=O)CCC1=O (racemic)
Activity [1]: Active
inhibition [17]: 26.4%
inhibition [18]: -0.8%
selectivity ratio [2]: 7.6
inhibition [19]: 55.2%
inhibition [20]: -3.2%
selectivity ratio [3]: 3.5
ED50 [4]: 75.4 mg/kg
inhibition [21]: 2.9%
ED50 [6]: 44.3 mg/kg
inhibition [22]: -7.7%
Activity [8]: Active
inhibition [23]: -6.5%
Time [10]: 0.5 h
selectivity ratio [11]: 4.4
inhibition [24]: 1.3%
Activity [16]: inactive
TD50 at 2 h [12]: 336 mg/kg
inhibition [25]: 10.8%
Activity [13]: 50%
ED50 [14]: 96.9 mg/kg
inhibition [26]: 43.7%

CC1CC(=O)N(C(C)C(=O)Nc2cccc(C(F)(F)F)c2)C1=O (stereo not given)
Activity [9]: inactive
Activity [13]: inactive

CC1CC(=O)N(C(C)C(=O)Nc2ccc(Cl)cc2)C1=O (stereo not given)
Activity [9]: inactive

CCC(C(=O)Nc1ccc(F)cc1)N1C(=O)CCC1=O (stereo not given)
Activity [9]: inactive
Activity [13]: inactive

CCC(C(=O)Nc1cccc(Cl)c1)N1C(=O)CCC1=O (stereo not given)
Activity [1]: 75%
selectivity ratio [2]: > 11.5
ED50 [4]: > 130 mg/kg
ED50 [6]: 43.4 mg/kg
Activity [7]: inactive
Activity [8]: 50%
Activity [15]: Non-toxic
Activity [9]: inactive
Time [10]: 0.5 h
TD50 at 2 h [12]: > 500 mg/kg
Activity [13]: 75%
ED50 [14]: > 130 mg/kg

CCC(C(=O)Nc1ccc(Cl)cc1)N1C(=O)CCC1=O (stereo not given)
Activity [9]: inactive
Activity [13]: inactive

CCC1(C)CC(=O)NC1=O (stereo not given) [ETHOSUXIMIDE]
ED50 [4]: 148 mg/kg
ED50 [6]: > 200 mg/kg
Time [10]: 0.5 h
selectivity ratio [11]: 4.9
ED50 [14]: > 500 mg/kg

CC1CC(=O)N(C(C)C(=O)Nc2cccc(Cl)c2)C1=O (stereo not given)
Activity [1]: 75%
selectivity ratio [2]: 3.2
selectivity ratio [3]: 3.5
ED50 [4]: 58.4 mg/kg
Activity [5]: Non-toxic
ED50 [6]: 88.2 mg/kg
Activity [8]: 75%
Activity [15]: Non-toxic
Time [10]: 0.5 h
selectivity ratio [11]: 4.8
Activity [16]: inactive
TD50 at 2 h [12]: 279 mg/kg
Activity [13]: 75%
ED50 [14]: 80.6 mg/kg

NC(=O)N1c2ccccc2C=Cc2ccccc21
inhibition [18]: 8.8%
inhibition [20]: 7.5%
inhibition [21]: 3.6%
inhibition [22]: 2.6%
inhibition [23]: -2.9%
inhibition [27]: 33.6%
inhibition [24]: 1.9%
inhibition [25]: 1.1%
inhibition [26]: 7.3%

CCC(C(=O)Nc1ccc(C(F)(F)F)cc1)N1C(=O)CCC1=O (stereo not given)
Activity [9]: inactive
Activity [13]: inactive

CC1CC(=O)N(C(C)C(=O)Nc2ccc(C(F)(F)F)cc2)C1=O (stereo not given)
Activity [9]: inactive
Activity [13]: inactive

CCC(C(=O)Nc1cccc(C(F)(F)F)c1)N1C(=O)CCC1=O (stereo not given)
Activity [9]: inactive
Activity [13]: inactive

CC(C(=O)Nc1ccc(F)cc1)N1C(=O)CCC1=O (stereo not given)
Activity [9]: inactive
Activity [13]: inactive

COC[C@@H](NC(C)=O)C(=O)NCc1ccccc1 [LACOSAMIDE]
selectivity ratio [2]: 5.3
ED50 [4]: > 500 mg/kg
ED50 [6]: 6.4 mg/kg
Time [10]: 0.5 h
ED50 [14]: 9.4 mg/kg

CC1CC(=O)N(C(C)C(=O)Nc2cccc(F)c2)C1=O (stereo not given)
Activity [9]: inactive

CC(C(=O)Nc1ccc(Cl)cc1)N1C(=O)CCC1=O (stereo not given)
Activity [13]: inactive

CCCC(CCC)C(=O)O [VALPROIC ACID]
Time [10]: 0.5 h

CCC(C(=O)Nc1cccc(F)c1)N1C(=O)CCC1=O (stereo not given)
Activity [1]: Active
selectivity ratio [2]: 8.4
selectivity ratio [3]: 2.9
ED50 [6]: 41.4 mg/kg
Activity [7]: inactive
Activity [15]: Non-toxic
Activity [9]: inactive
Time [10]: 0.5 h
TD50 at 2 h [12]: 346 mg/kg
Activity [13]: 75%
ED50 [14]: 121 mg/kg
